Source: patent US20240093213A1, “PROCESSES, SYSTEMS AND MEDIA FOR DELIVERING A SUBSTANCE TO A PLANT” (EPIGENETICA LIMITED, priority 2020, published 2024)

How the values were obtained:
[1] = test system: Cannabis (Cs) apical cuttings; test: Plant growth regulators delivered with ONB in hydroponics, plant growth; type: in vivo, Cannabis sativa; details: ONB compared to tap water as delivery system; 14 days hydroponics
Method: Hydroponic experiments were set up in glasshouse conditions: day temp. 25° C., night temp. 18° C., 16/8 h day/night and 150 μmol m^−2 s^−1 light intensity. Cannabis (Cs) apical cuttings were treated with Gibberellic acid A3 (GA3; Duchefa, G0907) at 12 mg/L final concentration, similar to Mansouri et al. (2011) or with DL-carnitine hydrochloride (Merck S7021474 Cas-No 461-05-2, 8.41774.0025) at 1 mM/L final concentration, as in Signem Oney-Birol (2019).
All solutions were prepared first in buckets, pH adjusted to 6.0. The liquid feed (Canna coco A+B) was added at the concentration: 4 mL of coco A and 4 mL of coco B per 1 L water; electric conductivity EC=2.0 mS/cm. Next the solutions were run through a fine bubble generator (Anzaikantetsu Co, AZ-FB-20ASVV) with a 0.75 standard litres per minute (SLPM) O2 flow and 800 L/H water flow. Each 25 L bucket was run for 30 min through the nozzle. EC and pH were checked and adjusted to the right level daily. Plants were grown in hydroponics for 14 days. Plant growth was monitored and compared to controls. Plant growth was determined by measurement of major growth parameters including plant height, whole plant fresh weight and number of stems. […]

[2] = test system: lettuce (Lactuca sativa); test: Ultrasonic fogging of leaves with air nanobubble water, fresh weight; type: in vivo; details: var. Tango, 14 days, fog from air nanobubble water, source solution 1.65 mg/L
Method: Seedlings of various lettuce varieties (Lactuca sativa) were exposed to ultrasonic fog generated from water that contained air nanobubbles carrying MVOCs.
Albuterol Sulfate 98.5% (Spectrum Chemical, New Brunswick, NJ, USA) was diluted in tap water at 1.65 mg/L. Five litres was then placed in a container that was pressurized by an air compressor at 1.3 bar. Gas flow from the pressurized container was directed to a nanobubble generator installed in a recirculating flow of water totaling 60 L. After a minimum of 2 hr treatment, 4 L of nanobubble treated water was removed from the recirculating system and placed in a rectangular plastic reservoir with a total capacity of 6 L. A three head ultrasonic fog generator was then placed in the reservoir, and the reservoir was placed in an enclosed plant growth chamber. Seeds of lettuce (Lactuca sativa, var. Tango) were planted in 2.5 cm square cells filled with ProMix growing media. Upon shoot emergence, seedlings were placed in the growth chamber and fog treatments began. A ‘control’ group of plants was placed in a different section of the growth chamber that was not subjected to any treatment. Growing parameters within the chambers were maintained at levels suitable for the crop, including a photoperiod of 16 hr/day. […] After 14 days, all plants were harvested and fresh weight recorded.

Compound | Plant height and biomass [1] | Average increase in weight compared to control plants [2]
C[N+](C)(C)CC(O)CC(=O)O.[Cl-] (racemic) [DL-carnitine, DL-carnitine hydrochloride] | Increased plant height and biomass | 
C=C1C[C@]23C[C@@]1(O)CC[C@H]2[C@@]12C=C[C@H](O)[C@@](C)(C(=O)O1)[C@H]2[C@@H]3C(=O)O [gibberellic acid, Gibberellic acid A3] | Increased plant height and biomass | 
Albuterol Sulfate |  | over 30%
